Source: patent US20250177458A1, “USES OF BIFIDOBACTERIUM LONGUM MICROORGANISMS HAVING THE CAPACITY TO DEGRADE BOTH HMO AND PLANT-DERIVED GLYCANS” (SOCIETE DES PRODUITS NESTLE S.A., priority 2022, published 2025)

System: transitional B. longum isolate NCC5004
Experiment: in vitro tube fermentation of fecal sample supplemented with isolate NCC5004, isolate-specific qPCR
Type: cell-based, Bifidobacterium longum
Conditions: HMO 5 g/L as single carbon source, toddler fecal community, after 24 hr and 48 hrs
Procedure: All bacterial strains retrieved from the Nestlé Culture Collection (NCC) were reactivated from a freeze-dried stock using two successive culturing steps (16 h, 37° C., anaerobiosis) in MRS (De Man, Rogosa and Sharpe) media supplemented with 0.05% cysteine (MRSc). Reactivated cultures were then centrifuged, washed, and resuspended in 1 volume of PBS.
For in vitro tube fermentation experiments, pulverized or homogenized stool samples were mixed 10-fold by adding PBS/glycerol (1/10) (w/v) before centrifugation at 600×g for 2 minutes. The slurry and pellet were then stored at −80° C. Frozen slurry of a fecal sample was thawed from storage and then use for the in vitro tube fermentation assays. The fecal slurry was inoculated with media based on that disclosed in Gibson et al. (Applied and Environmental Microbiology; 1988; 54(11); 2750-2755) with some modifications, specifically the exclusion of any carbon source. […]
The in vitro tube fermentation assays (n=3 per testing group) were set up at 37° C. with gentle stirring in an anaerobic environment (gas flow of pure N2 and a mix of N2, H2, and CO2 to ensure anaerobic conditions). Aliquots (0.5 mL) from fermentation tubes were taken and DNA was extracted, purified and analyzed at the time points indicated (0 hr, 24 hr and 48 hr). […]

## 2′ fucosyllactose [2′FL]
  growth of NCC5004 (qPCR absolute abundance) compared to baseline (0 hrs): significant growth

## 3-fucosyllactose [3 FL]
  growth of NCC5004 (qPCR absolute abundance) compared to baseline (0 hrs): significant growth
